# Assays:
# [1] = test system: 4T1-luc orthotopic graft (fat pad, s.c.); assay: Survival rate in orthotopic animal model; type: in vivo, mouse; details: 20 mg/kg intraperitoneal once every 3 days, 6 times; compared to Vehicle; FIG. 8D
# Text: (§1) After 4-week-old athymic nude mice (female) were purchased, only healthy mice were selected while the mice were adapted to the environment of the animal breeding room for 7 days. For identification of each mouse, the ears were marked using an ear punch. In addition, the breeding box was identified by attaching a mouse identification card describing the test number, test substance name, test item, receipt date, test date, test content, and the person in charge of the test. The environment of the animal breeding room was maintained at a temperature of 22±3° C., a relative humidity of 50±20%, 10 to 15 ventilations/hour, a 12-hour light (8:30 to 20:30)/dark cycle, and an illuminance of 150 to 300 lux. In addition, the animals were fed feed and drinking water during the breeding period, and quarantined during the acclimatization and testing periods.
# The nude mice were anesthetized by inhalation with 2.5% isoflurane, and then injected with the mouse breast cancer cell line 4T1-luc of Experimental Method 1 by a sterile syringe. […]
# During a period ranging from the day the mouse breast cancer cell line 4T1-luc was injected to the end of the experiment (the date of death), the volume of the tumor was measured once every 3 days and the survival rate of the animal model was checked every day. […]
# p-AMPK (Thr172) [2] = assay: AMPK activation by p-AMPK (Thr172) Western blot in gastric cancer cell lines; type: cell-based, human; details: 10 μM, 12 hours, compared to untreated group
# Procedure: (§2) [3-2] The three breast cancer cell lines (4T1, BT549, and MDA-MB-231) of Experimental Method 1 were treated with each of the compound of Production Example 6 and 13 compounds, including the compounds of Production Examples 1 to 5 and 8 to 15 having a similar structure (YE-01, 02, 03, 04, 05, 08, 09, 10, 11, 12, 13, 14 and 15), at a concentration of 10 μM, and then cultured for 24 hours. In addition, each of two types of gastric cancer cell lines, brain cancer cell lines and pancreatic cancer cell lines was treated with the compound of Production Example 6 or the compound of Production Example 8 having a similar structure at a concentration of 10 μM and then cultured for 12 hours. Thereafter, the cells were harvested and lysed in RIPA buffer, and the protein was electrophoresed by SDS-PAGE, and then the expression level of the protein was analyzed using antibodies specific for AMPK and phospho-AMPK (Thr172). GAPDH or β-actin was used as a loading control for protein quantification.
# MDA-MB-231 cell line = assay: Flow cytometry assay (Annexin V / PI); type: cell-based, human; details: MDA-MB-231, 0 to 30 μM, 24 hours; FIG. 6
# Procedure: (§3) The breast cancer cell line of Experimental Method 1 was treated with the compound of Production Example 6 at a concentration of 0 to 30 μM and cultured for 24 hours. Thereafter, the cultured cells were detached by trypsin, and then double-stained with Annexin V; recognizing apoptosis) and PI (propidium iodide; recognizing cell necrosis), and then the pattern and level of apoptosis were measured using flow cytometry.
# p-AMPK (Thr172) [3] = assay: AMPK activation by p-AMPK (Thr172) Western blot in brain cancer cell lines; type: cell-based, human; details: 10 μM, 12 hours, compared to untreated group
# Procedure: as §2
# [4] = test system: 4T1-luc xenograft (flank, s.c.); assay: Tumor regression in xenograft animal model; type: in vivo, mouse; details: 4 mg/kg tail vein (IV) once every 3 days, 6 times; compared to Vehicle; FIG. 8A, 8B
# Text: as §1, with “periods. […]” for “periods.”
# During a period ranging from the day the mouse breast cancer cell line 4T1-luc was injected to the end of the experiment (dissection date), the tumor volume was measured every day. […] In order to confirm the tumor regression effect, the volume of the tumor was measured before administration of the compound of Production Example 6, and at day 28 after the first administration of the compound of Production Example 6, the animals were euthanized, and the primary tumors were excised and their volumes were compared.
# AMPK = assay: Cellular thermal shift assay (CTSA) of AMPK protein, Western blot; type: binding, human; details: cells treated with compound; AMPK protein alone Tm 50° C.; FIG. 1
# Procedure: In order to examine whether or not the compound of Production Example 6 and 13 compounds, including the compounds of Production Examples 1 to 5 and 8 to 15 having a similar structure (YE-01, 02, 03, 04, 05, 08, 09, 10, 11, 12, 13, 14 and 15), bind to the AMP binding site of AMPK, cellular thermal shift assay (CTSA) was performed. Specifically, the cultured human breast cancer-derived cell line (BT549 or MDA-MB-231 cell line) was detached from the culture dish using trypsin. The detached cell line was diluted in PBS, and the same amount of the cells were dispensed in each tube for PCR and heated for 3 minutes at a temperature of room temperature to 65° C. After completion of the heating, protein was isolated from the cell line using liquid nitrogen, and Western blot analysis was performed to confirm the temperature at which AMPK would be denatured by heat.
# p-AMPK (Thr172) [5] = assay: AMPK activation by p-AMPK (Thr172) Western blot in pancreatic cancer cell lines; type: cell-based, human; details: 10 μM, 12 hours, compared to untreated group
# Procedure: as §2
# 4T1 cell line = assay: Flow cytometry assay (Annexin V / PI); type: cell-based, mouse; details: 4T1, 0 to 30 μM, 24 hours; FIG. 6
# Procedure: as §3
compound,measurement,setting,value
"COc1ccc(OC)c(/C=C/C(=O)c2ccc(NS(=O)(=O)c3ccc(Cl)cc3)cc2)c1 [Production Example 6, (E)-4-chloro-N-(4-(3-(2,5-dimethoxyphenyl)acryloyl)phenyl)benzenesulfonamide]",survival rate,[1],significantly improved
same,expression of p-AMPK,p-AMPK (Thr172) [2],increased
same,cells stained with annexin V or PI,MDA-MB-231 cell line,increased in a concentration-dependent manner
same,expression of p-AMPK,p-AMPK (Thr172) [3],increased
same,volume of the tumor,[4],decreased
same,Tm value of AMPK protein,AMPK,55 °C
same,expression of p-AMPK,p-AMPK (Thr172) [5],increased
same,cells stained with annexin V or PI,4T1 cell line,increased in a concentration-dependent manner

# Source: patent publication US12447137B2, “Composition for prevention, amelioration, or treatment of cancer” (EWHA UNIVERSITY—INDUSTRY COLLABORATION FOUNDATION, priority 2019, dated 2025)
